Reference: ChEMBL document CHEMBL1201862, “PubChem BioAssay data set” (2004)
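Test compounds were applied to cells in 96-well plates for 48 hours at 5 doses. GI50: concentration for 50% inhibition of growth.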 The source made the active and inactive calls. Rule as the data show it: active = GI50 up to about 1.1 µM and inactive = higher.

What was measured:
Experiment in all cases: growth of human tumour cells (NCI), 48 h
[1] = system: MDA-MB-231
[2] = system: HCT-15
[3] = system: COLO 205
[4] = system: UACC-62
[5] = system: Malme-3M
[6] = system: K562
[7] = system: TK-10
[8] = system: OVCAR-4
[9] = system: PC-3
[10] = system: NCI-H522
[11] = system: EKVX
[12] = system: LOX IMVI
[13] = system: SNB-19
[14] = system: CCRF-CEM
[15] = system: MOLT-4
[16] = system: SK-MEL-28
[17] = system: KM12
[18] = system: RPMI-8226
[19] = system: MDA-N

| Compound | GI50 [1] | GI50 [2] | GI50 [3] | GI50 [4] | GI50 [5] | GI50 [6] | GI50 [7] | GI50 [8] | GI50 [9] | GI50 [10] | GI50 [11] | GI50 [12] | GI50 [13] | GI50 [14] | GI50 [15] | GI50 [16] | GI50 [17] | GI50 [18] | GI50 [19] |
| --- | --- | --- | --- | --- | --- | --- | --- | --- | --- | --- | --- | --- | --- | --- | --- | --- | --- | --- | --- |
| Cc1cc2c(cc1Cl)SC(N/N=C(\N)c1ccc(Cl)cc1)=NS2(=O)=O | 76.6 µM (inactive) | 46.5 µM | 42.3 µM (inactive) | 59.7 µM (inactive) | 38.1 µM (inactive) | 44 µM (inactive) | > 100 µM (inactive) | 75.2 µM (inactive) | 41 µM (inactive) | 30.6 µM (inactive) | 72.9 µM (inactive) | 43 µM (inactive) | 77.4 µM (inactive) | 43.3 µM (inactive) | 45.7 µM (inactive) | 54.7 µM (inactive) | 35.2 µM (inactive) |  |  |
| COC(=O)c1cccc(C)c1C1CN=NC12Cc1c(ccc(C)c1C)C2=O (centres undefined) | 26.7 µM (inactive) | 16.4 µM |  |  | 22.9 µM (inactive) | 19 µM (inactive) | > 100 µM (inactive) | 56.9 µM (inactive) |  | 15.8 µM (inactive) | 7.14 µM (inactive) | > 100 µM (inactive) | 55 µM (inactive) | 26.1 µM (inactive) | 23.6 µM (inactive) | 50 µM (inactive) | 23.3 µM (inactive) | 17.3 µM (inactive) | 33.1 µM (inactive) |
| O=C1CCCC/C1=C(\Br)I | 17.6 µM (inactive) | 3.4 µM | 15.1 µM (inactive) | 15.5 µM (inactive) | 5.5 µM (inactive) | 2.69 µM (inactive) | 13.9 µM (inactive) | 15.4 µM (inactive) | 17.3 µM (inactive) | 1.56 µM (inactive) | 18.7 µM (inactive) | 16.7 µM (inactive) | 20.7 µM (inactive) | 1.77 µM (inactive) | 2.11 µM (inactive) | 15.7 µM (inactive) | 17.1 µM (inactive) | 2.86 µM (inactive) |  |
| O=C1O/C(=C\c2ccc(O)c(Br)c2)C(c2ccc(O)cc2)=C1Cl |  | 36.6 µM | 47.5 µM (inactive) | 16.4 µM (inactive) | 38.5 µM (inactive) | 68.4 µM (inactive) | 45.6 µM (inactive) | 40 µM (inactive) | 51.1 µM (inactive) | 26.5 µM (inactive) | 32.6 µM (inactive) | 42.2 µM (inactive) | 89.3 µM (inactive) | 0.849 µM (active) | 65.8 µM (inactive) | > 100 µM (inactive) | 34.2 µM (inactive) | 10.1 µM (inactive) | 26.1 µM (inactive) |
| C/N=C(\N=c1/ss/c(=N\C)n1C)N(C)C.[O-][Cl+3]([O-])([O-])O |  |  | 28.2 µM (inactive) | > 100 µM (inactive) |  | 40.7 µM (inactive) | > 100 µM (inactive) | > 100 µM (inactive) |  | 76 µM (inactive) | > 100 µM (inactive) | 45.9 µM (inactive) | > 100 µM (inactive) |  | 59.7 µM (inactive) | > 100 µM (inactive) | > 100 µM (inactive) | 74.6 µM (inactive) |  |
| Cc1ccc(C2=C(Cl)C(=O)C(c3ccc(C)cc3)=C(Cl)C2=O)cc1 |  | > 100 µM | > 100 µM (inactive) | > 100 µM (inactive) | > 100 µM (inactive) | > 100 µM (inactive) | > 100 µM (inactive) | > 100 µM (inactive) | > 100 µM (inactive) | > 100 µM (inactive) | > 100 µM (inactive) | > 100 µM (inactive) | > 100 µM (inactive) | 83.4 µM (inactive) | > 100 µM (inactive) | > 100 µM (inactive) | > 100 µM (inactive) | > 100 µM (inactive) | > 100 µM (inactive) |
| CCOC(=O)C1(C/C=C(/C)Cl)CCCC1=O (centres undefined) |  | 26.7 µM | > 100 µM (inactive) | > 100 µM (inactive) | > 100 µM (inactive) | > 100 µM (inactive) | > 100 µM (inactive) | > 100 µM (inactive) |  | > 100 µM (inactive) | > 100 µM (inactive) | > 100 µM (inactive) | > 100 µM (inactive) | > 100 µM (inactive) | > 100 µM (inactive) | > 100 µM (inactive) | > 100 µM (inactive) | 26.9 µM (inactive) |  |
| CC1=CC(=O)N(n2c(-c3ccccc3)n[nH]c2=O)C1=O | > 100 µM (inactive) | > 100 µM | > 100 µM (inactive) | > 100 µM (inactive) | > 100 µM (inactive) | > 100 µM (inactive) | > 100 µM (inactive) | > 100 µM (inactive) | > 100 µM (inactive) | > 100 µM (inactive) | > 100 µM (inactive) | > 100 µM (inactive) | > 100 µM (inactive) | 43.9 µM (inactive) | > 100 µM (inactive) | > 100 µM (inactive) | > 100 µM (inactive) | > 100 µM (inactive) |  |
| CCOC(=O)c1nc2c(Cl)c3ncccc3cc2[nH]c1=O | 18.1 µM (inactive) | 19 µM | > 100 µM (inactive) | 14.6 µM (inactive) | > 100 µM (inactive) | 26.1 µM (inactive) | > 100 µM (inactive) | 49.1 µM (inactive) | 30.9 µM (inactive) | 34.4 µM (inactive) | 9.08 µM (inactive) |  | 48.1 µM (inactive) | 17.5 µM (inactive) | 10.4 µM (inactive) | 59.3 µM (inactive) | 31.6 µM (inactive) |  |  |
| Cc1ccc(S(=O)(=O)N2C[C@](O)(c3ccccc3)[C@H]2C)cc1 | > 100 µM (inactive) | > 100 µM | > 100 µM (inactive) | > 100 µM (inactive) | > 100 µM (inactive) |  | > 100 µM (inactive) | > 100 µM (inactive) | > 100 µM (inactive) | > 100 µM (inactive) | > 100 µM (inactive) | > 100 µM (inactive) | > 100 µM (inactive) | 26.4 µM (inactive) | 44.2 µM (inactive) | > 100 µM (inactive) | > 100 µM (inactive) |  | > 100 µM (inactive) |
| NS(=O)(=O)c1ccc2c(c1)OCCOCCOCCOCCO2 | > 100 µM (inactive) | > 100 µM | > 100 µM (inactive) | > 100 µM (inactive) | > 100 µM (inactive) | > 100 µM (inactive) | > 100 µM (inactive) |  | > 100 µM (inactive) | > 100 µM (inactive) | > 100 µM (inactive) | > 100 µM (inactive) | > 100 µM (inactive) | > 100 µM (inactive) | > 100 µM (inactive) | > 100 µM (inactive) | > 100 µM (inactive) | > 100 µM (inactive) |  |
| COC(=O)C1Cc2c([nH]c3ccccc23)C(C2CCCCC2)N1 (centres undefined) |  | > 100 µM | > 100 µM (inactive) | > 100 µM (inactive) | > 100 µM (inactive) | > 100 µM (inactive) | > 100 µM (inactive) | > 100 µM (inactive) |  | > 100 µM (inactive) | > 100 µM (inactive) | > 100 µM (inactive) | > 100 µM (inactive) | > 100 µM (inactive) | > 100 µM (inactive) | > 100 µM (inactive) | > 100 µM (inactive) |  |  |
